Values quoted from earlier work, collected in US20260272852A1, “COAGULATION PATHWAY AND NICOTINAMIDE-ADENINE DINUCLEOTIDE PATHWAY MODULATING COMPOSITIONS AND METHODS OF THEIR USE” (L'OREAL, priority 2021, published 2026).

What was measured:
[1] = topical 4% niacinamide treatment
[2] = system: hyperpigmentation spots, fine lines, and wrinkles; settings: moisturizer containing 5% niacinamide, half of face, 12 weeks
[3] = system: suction induced petechia formation; settings: 0.5% vitamin K1 cream twice daily for one week, ten healthy individuals
[4] = system: 585-nm pulsed dye laser-induced purpuras

NC(=O)c1cccnc1 [niacinamide]
Treated patients with good-to-excellent results [1]: 44%
Hyperpigmentation spots, fine lines, and wrinkles, treated side compared to control side [2]: significant improvements

CC1=C(C/C=C(\C)CCC[C@H](C)CCC[C@H](C)CCCC(C)C)C(=O)c2ccccc2C1=O [vitamin K1, phylloquinone]
Influence on suction induced petechia formation [3]: no influence

vitamin K
Effect of pretreatment on 585-nm pulsed dye laser-induced purpuras [4]: no effect
